According to the Deep4Chem optical property database:
Each block holds one molecule with its values, some of them ahead of it.

Experiment: solvent given as SMILES

absorption maximum (in ClCCl): 312 nm
Structure (SMILES): CCCCCCn1c2c(c3ccccc31)-c1c(c3ccccc3n1CCCCCC)-c1c(c3ccccc3n1CCCCCC)-c1c-2c2ccccc2n1CCCCCC

absorption maximum (in ClC(Cl)Cl): 482 nm
Structure (SMILES): CCCCCCCCCCCCOc1cc2c3cc(OCCCCCCCCCCCC)c(OCCCCCCCCCCCC)cc3c3c(cc(OCCCCCCCCCCCC)c4nc5cc(C#Cc6ccc(CCCCCCCCCC)cc6)c(C#Cc6ccc(CCCCCCCCCC)cc6)cc5nc43)c2cc1OCCCCCCCCCCCC

absorption maximum (in ClCCl): 433 nm
Structure (SMILES): CN(C)c1ccc(/C=C/c2ncnc3ccccc23)cc1

absorption maximum (in CN(C)C=O): 334 nm
Structure (SMILES): S=c1[nH]nc(-c2ccc(/C=C/c3ccc(-c4n[nH]c(=S)o4)cc3)cc2)o1

absorption maximum (in C1CCOC1): 336 nm
Structure (SMILES): CCC1(CC)c2cc(Br)ccc2-c2c1c1c(c3c2C(CC)(CC)c2cc(-c4cccs4)ccc2-3)C(CC)(CC)c2cc(Br)ccc2-1

absorption maximum (in ClCCl): 443 nm
Structure (SMILES): COCCOCCOCCOCC(COCCOCCOCCOC)Oc1cc(/C=C/c2ccc(/C=C(\C#N)c3ccccn3)cc2)c(OC(COCCOCCOCCOC)COCCOCCOCCOC)cc1/C=C/c1ccc(/C=C(\C#N)c2ccccn2)cc1

absorption maximum (in ClCCl): 390 nm
Structure (SMILES): CN(C)c1ccc(/C=C/c2cnc(C#Cc3ccc(C#N)cc3)o2)cc1

absorption maximum (in C1CCOC1): 339 nm
Structure (SMILES): Cc1csc(C)c1C1=C(c2c(C)sc(-c3ccc(-c4nc(-c5ccccc5)c(-c5ccccc5)[nH]4)cc3)c2C)C(F)(F)C(F)(F)C1(F)F

absorption maximum (in C1CCOC1): 792 nm
absorption maximum (in ClCCl): 791 nm
Structure (SMILES): CCC(CC)COC1=CC2=C3c4cc(OCC(CC)CC)c(-c5cccs5)n4[B-](F)(F)[n+]4c3n(c3cc(C(C)(C)C)ccc34)[B-](F)(F)[N+]2=C1c1cccs1

The next lines start with the molecule.

Structure (SMILES): O=C(c1ccc(-n2c3ccccc3c3cc(-n4c5ccccc5c5ccccc54)ccc32)cc1)c1ccc(-n2c3ccccc3c3cc(-n4c5ccccc5c5ccccc54)ccc32)cn1
absorption maximum (in Cc1ccccc1): 345 nm

Structure (SMILES): COc1cccc(-c2[nH]c(=O)n3c2-c2ccccc2C3=O)c1O
absorption maximum (in CC#N): 393 nm
absorption maximum (in CO): 395 nm
absorption maximum (in ClCCl): 396 nm

Structure (SMILES): CN(c1ccccc1)c1ccc(/C=C2\C(=O)c3ccccc3S2(=O)=O)cc1
absorption maximum (in C1CCOC1): 468 nm
absorption maximum (in C1COCCO1): 466 nm
absorption maximum (in CC#N): 471 nm
absorption maximum (in CC(C)=O): 470 nm
absorption maximum (in CCOC(C)=O): 465 nm
absorption maximum (in CN(C)C=O): 478 nm
absorption maximum (in CO): 475 nm
absorption maximum (in CS(C)=O): 483 nm
absorption maximum (in Cc1ccccc1): 472 nm
absorption maximum (in ClC(Cl)Cl): 479 nm
absorption maximum (in ClCCl): 476 nm

Structure (SMILES): CCSSCC
absorption maximum (in CCCCCC): 250 nm

Structure (SMILES): COc1ccc(-c2cccc3ncc(-c4ccc(C#N)cc4)n23)cc1
absorption maximum (in ClCCl): 329 nm

Structure (SMILES): CCOC(=O)c1cc(C(=O)OCC)c2cc([N+](=O)[O-])ccc2n1
absorption maximum (in CCO): 304 nm

Structure (SMILES): C(#Cc1cc2ccc3cc(C#Cc4ccccc4)cc4ccc(c1)c2c34)c1ccccc1
absorption maximum (in Cc1ccccc1): 410 nm

Structure (SMILES): CN(C)c1ccc2c(c1)-c1ccccc1C2=O
absorption maximum (in C1CCCCC1): 400 nm
absorption maximum (in CC#N): 431 nm
absorption maximum (in CCO): 437 nm
absorption maximum (in c1ccccc1): 420 nm

Structure (SMILES): CN(C)c1ccc(/C=C/c2cc3ccccc3c[n+]2C)cc1
absorption maximum (in CC(C)=O): 425 nm
absorption maximum (in ClCCl): 441 nm

Structure (SMILES): N[C@@H](Cc1ccc(O)cc1)C(=O)O
absorption maximum (in O): 285 nm

Structure (SMILES): CCN(CC)c1ccc(-c2nc3cc(C(NC(=O)OC(C)(C)C)C(=O)OC)ccc3o2)c(O)c1 (stereo not drawn)
absorption maximum (in CC1CCCCC1): 364 nm
absorption maximum (in CC#N): 364 nm
absorption maximum (in CO): 364 nm

Structure (SMILES): CCCCCCCC1=C(C)C(=O)n2c1cc1[nH]c(C(=O)OC)c(C)c1c2=O
absorption maximum (in C1CCCCC1): 393 nm
absorption maximum (in CO): 397 nm
absorption maximum (in CS(C)=O): 397 nm
absorption maximum (in ClC(Cl)Cl): 396 nm
absorption maximum (in c1ccccc1): 395 nm

Structure (SMILES): CCc1ccc2ccc(-c3ccccc3)nn12
absorption maximum (in C1CCCCC1): 405 nm

Structure (SMILES): COc1c2ccccc2c(OC)c2c1c1c(C)ccc(OC)c1n2C
absorption maximum (in C1CCCCC1): 417 nm
absorption maximum (in CC#N): 416 nm
absorption maximum (in CO): 414 nm
absorption maximum (in ClCCl): 418 nm

Structure (SMILES): O=c1[nH]c(=O)n([C@@H]2O[C@H](CO)[C@@H](O)[C@H]2O)cc1-c1cc2ccccc2s1
absorption maximum (in C1COCCO1): 322 nm
absorption maximum (in CC#N): 321 nm
absorption maximum (in CO): 321 nm
absorption maximum (in O): 318 nm
